Assay results from patent US12383598B2, “Method for treating gingivitis and gingival atrophy and repairing oral mucosa” (ADVANCED HEALTHTECH BIOPEPTIDE LABORATORIES CO., LTD, priority 2021, dated 2025).
Values belong to the molecule of their own block, whether it stands above or below them. Ends that are not written are not given here. Peptide text beside a SMILES is read from it.

Columns and labels:
Format in all cases: cell-based
[1] = molecular target: TNFα (Homo sapiens, UniProt P01375); assay: TNFα inhibition in L929 cells; details: for O.D. (TNFα inhibition): O.D. at 490/630 nm
TNFα, sequence (P01375 77-233 limits assumed, species assumed): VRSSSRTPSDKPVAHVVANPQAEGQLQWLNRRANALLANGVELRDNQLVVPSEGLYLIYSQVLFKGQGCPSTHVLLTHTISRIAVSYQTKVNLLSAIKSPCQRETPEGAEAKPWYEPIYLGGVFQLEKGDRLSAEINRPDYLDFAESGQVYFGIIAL
Procedure: (§1) In vitro L929 cell proliferation/cytotoxicity assay was measured in a microtiter plate. L929 cells were cultured in the Eagle's minimum essential medium (EMEM) containing 10% bovine serum, 1% P/S and 1% non-essential amino acids. Converged L929 cells were washed by 2 ml of a phosphate buffer solution (PBS) and then treated with trypsin, followed by resuspension in the EMEM. 200 μl of the cell suspension were taken by suction for cell density counting, and the remaining cell suspension were centrifuged at 1500 rpm for 5 minutes. The supernatant was removed, and the EMEM was added for diluting the cells to form a final concentration of 1.5×10^5 cells/ml. 100 μl of the resultant cell suspension were added to each well of a 96-well flat-bottom microtiter plate, and then incubated at 37° C. and 5% CO2 for 24 hours.
GEKG and KTTKS were re-solved with 1× PBS to form solutions having a concentration equivalent to 1 mg GEKG/ml and 1 mg KTTKS/ml, respectively, followed by further dilution with 1× PBS to form solutions having a concentration of 500, 125, 31.25 […], respectively, and the resultant diluted solutions were mixed with a TNFα solution with an equal volume, and incubated for 1 hour. 50 μl of each of the 4 mixtures were added to the above 96-well flat-bottom microtiter plate containing L929 cells incubated for 24 hours, and actinomycin D (ActD) with a final concentration of 2 μg/ml and TNFα with a final concentration of 0.1 ng/ml were added to each well. Test wells containing 2 μg/ml ActD only and 0.1 ng/ml TNFα only were used as positive controls and blank controls, respectively. The resultant 96-well flat-bottom microtiter plate was further incubated at 37° C. and 5% CO2 for 24 hours. O.D. values at 490/630 nm were measured by a microplate reader. TNFα inhibition was calculated by the following formula: […]

[2] = Cytotoxicity to L929 cells (XTT); details: mouse, L929 cells
Procedure: as §1
(§2) GEKG and KTTKS were re-solved with 1× PBS to form solutions having a concentration equivalent to 1 mg GEKG/ml and 1 mg KTTKS/ml, respectively, followed by further […], respectively. 50 μl of each of the 4 diluted solutions were added to the above 96-well flat-bottom microtiter plate containing L929 cells incubated for 24 hours, and ActD with a final concentration of 2 μg/ml was added to each well. The resultant 96-well flat-bottom microtiter plate was further incubated at 37° C. and 5% CO2 for 24 hours, followed by addition of 50 μl of 2,3-bis(2-methoxy-4-nitro-5-sulfophenyl)-5-[(phenylamino)carbonyl]-2H-tetrazolium hydroxide (XTT) to each well and further incubation for 1 hour. O.D. values at 490/630 nm were measured by a microplate reader. Cytotoxicity was calculated by the following formula: […]

[3] = test system: L929 cells; assay: Cytotoxicity to L929 cells (XTT); details: for O.D. (cytotoxicity): O.D. at 490/630 nm; for Cytotoxicity to L929 cells (in words): series of dilutions
Procedure: as §1, §2

[4] = test system: macrophages; assay: NO production from macrophages induced by LPS; details: in vitro; FIGS. 3 and 4
Procedure: In vitro anti-inflammation of GEKG and KTTKS was evaluated by using the well-known inflammation model of NO production from macrophages induced by lipopolysaccharide (LPS).

[5] = test system: macrophages; assay: H2O2 production from macrophages induced by LPS; details: in vitro; FIG. 5
Procedure: An ability of GEKG and KTTKS against inflammatory oxidation pressure in vitro was evaluated by using the well-known inflammation model of H2O2 production from macrophages induced by lipopolysaccharide (LPS).

[6] = test system: primary oral epithelial cells; assay: Proliferation of primary oral epithelial cells; details: different concentrations, in vitro; FIG. 6
[7] = test system: primary oral epithelial cells; assay: Death of primary oral epithelial cells induced by free radical H2O2; details: different concentrations, in vitro; FIG. 7
[8] = test system: human gingival fibroblasts (HGF); assay: Proliferation of human gingival fibroblasts (HGF); details: different concentrations, in vitro; FIG. 8A
[9] = test system: Type I collagen; assay: Gene expression of Type I collagen in human gingival fibroblasts (RT-PCR); details: concentration of 0 to 40 μl, FIG. 8B
Procedure: Production of Type I collagen in human gingival fibroblasts was observed. There is a dose-dependent relationship between expression of Type I collagen and GEKG and KTTKS in a concentration of 0 to 40 μl.

[10] = test system: TGF-β1; assay: Gene expression of TGF-β1 in human gingival fibroblasts (RT-PCR); details: human HGF, FIG. 9A, 9B
[11] = test system: human HGF; assay: Synthesis of extracellular matrix (ECM) from human HGF; details: 50 μM KTTKS or GEKG; TGF-β1 0, 0.5 and 5 ng/ml; FIG. 10
Procedure: It is determined whether or not there exists synergism between GEKG or KTTKS and TGF-β1 in the synthesis of ECM when human HGF was treated with TGF-β1 (0.5 or 5 ng/ml) alone or in combination with KTTKS or GEKG (50 µM).
Human HGF were pre-cultured in the Dulbecco's Modified Eagle Medium (DMEM) containing 0.2% bovine serum for 24 hours, and then treated with 3 different concentrations (0, 0.5 and 5 ng/ml) of TGF-β1 for 24 hours, followed by further culturing for 24 hours in the absence of KTTKS and GEKG (solid line) or in the presence of 50 μM KTTKS or GEKG (dotted line).

- O.D. (TNFα inhibition) ([1]; GEKG dilution 1/16): 1.60
- O.D. (TNFα inhibition) ([1]; GEKG dilution 1/64): 0.80
- O.D. (TNFα inhibition) ([1]; GEKG dilution 1/256): 0.61
- O.D. (TNFα inhibition) ([1]; GEKG dilution 1/512): 0.56
- O.D. (TNFα inhibition) ([1]; GEKG dilution 1/1024): 0.51
- O.D. (TNFα inhibition) ([1]; GEKG dilution 1/2048): 0.48
- O.D. (TNFα inhibition) ([1]; GEKG dilution 1/4096): 0.51
- O.D. (TNFα inhibition) ([1]; GEKG dilution ¼): 2.87
Molecule: NCCCC[C@H](NC(=O)[C@H](CCC(=O)O)NC(=O)CN)C(=O)NCC(=O)O [GEKG] (H-GEKG-OH)
- cytotoxicity at 24 h ([2]; GEKG dilution 1/16): -12.3%
- cytotoxicity at 24 h ([2]; GEKG dilution 1/64): -2.32%
- cytotoxicity at 24 h ([2]; GEKG dilution 1/256): -4.61%
- cytotoxicity at 24 h ([2]; GEKG dilution 1/512): -1.71%
- cytotoxicity at 24 h ([2]; GEKG dilution 1/1024): 0.11%
- cytotoxicity at 24 h ([2]; GEKG dilution 1/2048): 1.9%
- cytotoxicity at 24 h ([2]; GEKG dilution 1/4096): -4.72%
- cytotoxicity at 24 h ([2]; GEKG dilution ¼): -58.7%
- O.D. (cytotoxicity) ([3]; GEKG dilution 1/16): 2.01
- O.D. (cytotoxicity) ([3]; GEKG dilution 1/64): 1.83
- O.D. (cytotoxicity) ([3]; GEKG dilution 1/256): 1.87
- O.D. (cytotoxicity) ([3]; GEKG dilution 1/512): 1.82
- O.D. (cytotoxicity) ([3]; GEKG dilution 1/1024): 1.79
- O.D. (cytotoxicity) ([3]; GEKG dilution 1/2048): 1.75
- O.D. (cytotoxicity) ([3]; GEKG dilution 1/4096): 1.87
- O.D. (cytotoxicity) ([3]; GEKG dilution ¼): 2.84
- Cytotoxicity to L929 cells (in words) [3]: does not induce cytotoxicity
- Inhibition of NO production from macrophages induced by LPS [4]: inhibit NO production from macrophages induced by LPS in a dose-dependent manner
- Inhibition of H2O2 production from macrophages induced by LPS [5]: inhibit H2O2 production from macrophages induced by LPS in a dose-dependent manner
- Promotion of proliferation of primary oral epithelial cells [6]: promote proliferation of primary oral epithelial cells in vitro in a dose-dependent manner
- Reduction of death of primary oral epithelial cells induced by free radical H2O2 [7]: reduce death of primary oral epithelial cells induced by free radical H2O2 in vitro in a dose-dependent manner
- Effect on proliferation of HGF [8]: neither GEKG nor KTTKS in different concentrations exhibits a significant effect in promoting proliferation of HGF
- Gene expression of Type I collagen [9]: stimulate gene expression of Type I collagen in transcription
- Gene expression of TGF-β1 [10]: stimulate gene expression of TGF-β1 in transcription
- Synthesis of ECM (collagen and fibrin) from human HGF [11]: exhibit a more significant ability in inducing human HGF for synthesizing ECM than TGF-β1

- O.D. (TNFα inhibition) ([1]; KTTKS 4.156 μg/ml): 0.479
- O.D. (TNFα inhibition) ([1]; KTTKS 16.625 μg/ml): 0.597
- O.D. (TNFα inhibition) ([1]; KTTKS 66.5 μg/ml): 1.042
- O.D. (TNFα inhibition) ([1]; KTTKS 266 μg/ml): 2.363
- inhibition at 4.156 µg/mL ([1]; L929, KTTKS 4.156 μg/ml): 10.5%
- inhibition at 16.625 µg/mL ([1]; L929, KTTKS 16.625 μg/ml): 21.1%
- inhibition at 66.5 µg/mL ([1]; L929, KTTKS 66.5 μg/ml): 60.9%
- inhibition at 266 µg/mL ([1]; L929, KTTKS 266 μg/ml): 179%
Molecule: KTTKS [KTTKS]
- cytotoxicity at 24 h, 4.156 μg/ml ([2]; KTTKS 4.156 μg/ml): -8.3%
- cytotoxicity at 24 h, 16.625 μg/ml ([2]; KTTKS 16.625 μg/ml): -3.9%
- cytotoxicity at 24 h, 66.5 μg/ml ([2]; KTTKS 66.5 μg/ml): -20.8%
- cytotoxicity at 24 h, 266 μg/ml ([2]; KTTKS 266 μg/ml): -77.1%
- O.D. (cytotoxicity) ([3]; KTTKS 4.156 μg/ml): 1.600
- O.D. (cytotoxicity) ([3]; KTTKS 16.625 μg/ml): 1.535
- O.D. (cytotoxicity) ([3]; KTTKS 66.5 μg/ml): 1.784
- O.D. (cytotoxicity) ([3]; KTTKS 266 μg/ml): 2.616
- Cytotoxicity to L929 cells (in words) [3]: does not induce cytotoxicity
- Inhibition of NO production from macrophages induced by LPS [4]: inhibit NO production from macrophages induced by LPS in a dose-dependent manner
- Inhibition of H2O2 production from macrophages induced by LPS [5]: inhibit H2O2 production from macrophages induced by LPS in a dose-dependent manner
- Promotion of proliferation of primary oral epithelial cells [6]: promote proliferation of primary oral epithelial cells in vitro in a dose-dependent manner
- Reduction of death of primary oral epithelial cells induced by free radical H2O2 [7]: reduce death of primary oral epithelial cells induced by free radical H2O2 in vitro in a dose-dependent manner
- Effect on proliferation of HGF [8]: neither GEKG nor KTTKS in different concentrations exhibits a significant effect in promoting proliferation of HGF
- Gene expression of Type I collagen [9]: stimulate gene expression of Type I collagen in transcription
- Gene expression of TGF-β1 [10]: stimulate gene expression of TGF-β1 in transcription
- Synthesis of ECM (collagen and fibrin) from human HGF [11]: exhibit a more significant ability in inducing human HGF for synthesizing ECM than TGF-β1

Molecule: TGF-β1: tumor growth factor-β1 used at 0.5 or 5 ng/ml to treat human HGF [reference compound]
- Synthesis of ECM (collagen and fibrin) from human HGF [11]: up-regulate biosynthesis of ECM
